Results: PMC8318231, “Rate-of-Kill (RoK) assays to triage large compound sets for Chagas disease drug discovery: Application to GSK Chagas Box” (PLoS Neglected Tropical Diseases, 2021)

Experiments:
[1] = tested on: T. cruzi Tulahuen trypomastigotes; assay: T. cruzi trypomastigote assay (Cell Titer-Glo viability, ATP luminescence); format: cell-based, Trypanosoma cruzi; details: for Trypomastigotes pIC50 48 hours: 48 hours incubation; for Trypomastigotes pIC50 48 hours / Trypomastigotes pIC50 72 hours: pIC50 = -log10 IC50 in molar units; for Trypomastigotes pIC50 72 hours: 72 hours incubation; for 72 pIC50 (trypomastigotes, raw data of Fig 1D): 72 hours, plotted values, censored values given without sign; for 48 pIC50 / 72 pIC50: trypomastigote assay; for 48 pIC50: 48 h; for 72 pIC50: 72 h
How it was run: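 Compounds were tested in dose response or once at a final 5 μM against 5 × 10^4 trypomastigotes per well (DMEM, 2% FBS), collected on days 5–8 from LLC-MK2 infected cultures. ATP luminescence via CellTiter-Glo reports live parasites; DMSO defines 0% and cell-free wells 100% effect.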

[2] = tested on: T. cruzi intracellular amastigotes in H9c2 cells; assay: Rate-of-Kill (RoK) high-content imaging assay, amastigotes per cell (AM/CELL) and curve descriptors; format: cell-based, Trypanosoma cruzi; parameters: key to ME_24h / ME_48h / ME_72h: % reduction in parasite burden (cidal response); t50pct_MCC50 / t50pct_Cmax: unit not given here; details: for ME_24h: 24h; for ME_48h: 48h; for ME_72h: 72h; for ME_24h (%): maximum effect at 24 h; for ME_24h (%) / ME_48h (%) / ME_72h (%): RoK assay; for ME_48h (%): maximum effect at 48 h; for ME_72h (%): maximum effect at 72 h; for ME 24h (maximum effect at 24 hours, intracellular amastigotes): maximum percentage of parasite burden reduction reached by any concentration
How it was run: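 Readouts at each time point are amastigotes per cell and host nuclei count (cytotoxicity), from DRAQ5 high-content imaging. Infection: trypomastigotes on H9c2 at MOI 8 for 18 h. Dosing was 5 μM single point or 11 points, 1/3 steps from 50 μM. Effect scaled between 4 h infected and uninfected controls.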

TcCYP51 = details: formerly reported; cited from earlier work

| Structure (SMILES) | Trypomastigotes pIC50 48 hours [1] | Trypomastigotes pIC50 72 hours [1] | ME_24h ([2]; figure 5) | ME_48h ([2]; figure 5) | ME_72h ([2]; figure 5) | MCCE ([2]; RoK curve descriptor) [µM] | AM/CELL NORM ([2]; Time 4, sheet figure 4 A) | AM/CELL NORM ([2]; Time 24, sheet figure 4 A) | AM/CELL NORM ([2]; Time 48, sheet figure 4 A) | tlag_Cmax ([2]; at Cmax) [h] | t50pct_Cmax ([2]; at Cmax, figure 5) | tlag_Cmax ([2]; at Cmax, figure 5) | t50pct_MCC50 ([2]; at MCC50, figure 5) | tlag_MCC50 ([2]; at MCC50, figure 5) | MCCE ([2]; figure 5) | ME_24h (%) [2] [%] | ME_48h (%) [2] [%] | ME_72h (%) [2] [%] | ME 24h (maximum effect at 24 hours, intracellular amastigotes) [2] [%] | CYP51 pIC50 (TcCYP51) | also measured |
| --- | --- | --- | --- | --- | --- | --- | --- | --- | --- | --- | --- | --- | --- | --- | --- | --- | --- | --- | --- | --- | --- |
| COc1ccc2ncc(=O)n(CCN3CCOC(CNCc4ccc(C(F)(F)F)cc4F)C3)c2n1 (centres unmarked) [TCMDC-143384] | < 4.3 | < 4.3 | -27.6403 | -15.9254 | -18.8553 | 0.6 | -15.3138 | -27.6403 | -15.9254 | 24.0 | 72 | 24 | 72 | 72 | 0.6173 | -27.6 | -15.9 | -18.9 | -27.6403 | 5 | 72 pIC50 (trypomastigotes, raw data of Fig 1D) [1]: < 4.3; 48 pIC50 ([1]; figure 1A): < 4.3; 72 pIC50 ([1]; figure 1A): < 4.3; 72 pIC50 ([1]; figure 1B): < 4.3; AM/CELL NORM ([2]; Time 72, sheet figure 4 A): -18.8553; MCC50 ([2]; figure 5): 50 µM |
| CS(=O)(=O)c1cccc(CNC(=O)c2cncc(N3CCN(c4ccc(F)cc4)CC3)c2)c1.O=C(O)C(F)(F)F.O=C(O)C(F)(F)F.O=C(O)C(F)(F)F [TCMDC-143385] | < 4.3 | < 4.3 | -140.527 | 14.5657 | 58.9567 | 8.6 | -2.309 | -204.359 | 18.8519 | 24.0 | 72 | 24 | 72 | 48 | 8.642 | -140.5 | 14.6 | 59.0 | -76.6949 | 4.9 | 72 pIC50 (trypomastigotes, raw data of Fig 1D) [1]: < 4.3; 48 pIC50 ([1]; figure 1A): < 4.3; 72 pIC50 ([1]; figure 1A): < 4.3; 72 pIC50 ([1]; figure 1B): < 4.3; MCC50 ([2]; RoK curve descriptor): 1.9 µM; AM/CELL NORM ([2]; Time 72, sheet figure 4 A): 47.2855; t50%_MCC50 ([2]; at MCC50): 72.0 h; tlag_MCC50 ([2]; at MCC50): 24.0 h; MCC50 ([2]; figure 5, in µM): 25.9259 |
| O[C@H]1CC[C@H](Nc2nccc(-c3sc(C4CCOCC4)nc3-c3ccc(F)c(F)c3)n2)CC1 [TCMDC-143387] | 4.5 | < 4.3 | -7.952 | -1.621 | 23.2073 | 0.07 | – | – | – | 24.0 | 72 | 24 | 72 | 72 | 0.06859 | -8.0 | -1.6 | 23.2 | -7.952 | < 4 | AM/CELL NORM ([2]; Time 4, figure 4 A): 2.207; AM/CELL NORM ([2]; Time 24, figure 4 A): -7.952; AM/CELL NORM ([2]; Time 48, figure 4 A): -3.462; AM/CELL NORM ([2]; Time 72, figure 4 A): 23.2073; MCC50 ([2]; figure 5): 50 µM |
| O=C(O)C(F)(F)F.O=c1oc2ccccc2n1C1CCN(Cc2ccccc2-c2cccnc2)CC1 [TCMDC-143389] | < 4.3 | < 4.3 | -205.37 | -40.6003 | 54.0373 | 0.2 | -7.014 | -205.37 | -40.6003 | 24.0 | 72 | 24 | 72 | 24 | 0.2058 | -205.4 | -40.6 | 54.0 | -205.37 | 7 | 72 pIC50 (trypomastigotes, raw data of Fig 1D) [1]: < 4.3; 48 pIC50 ([1]; figure 1A): < 4.3; 72 pIC50 ([1]; figure 1A): < 4.3; 72 pIC50 ([1]; figure 1B): < 4.3; MCC50 ([2]; RoK curve descriptor): 5.6 µM; AM/CELL NORM ([2]; Time 72, sheet figure 4 A): 17.0901; t50%_MCC50 ([2]; at MCC50): 72.0 h; tlag_MCC50 ([2]; at MCC50): 24.0 h; MCC50 ([2]; figure 5, in µM): 5.556 |
| Cc1c(C(C)NC(=O)Nc2cccc(Cl)c2)sc2ncnn12 (centres unmarked) [TCMDC-143405] | < 4.3 | < 4.3 | -289.196 | -32.4517 | 41.1216 | 0.07 | -4.394 | -289.196 | -32.4517 | 24.0 | 72 | 24 | 72 | 72 | 0.06859 | -289.2 | -32.5 | 41.1 | -289.196 | 6.9 | 72 pIC50 (trypomastigotes, raw data of Fig 1D) [1]: < 4.3; 48 pIC50 ([1]; figure 1A): < 4.3; 72 pIC50 ([1]; figure 1A): < 4.3; 72 pIC50 ([1]; figure 1B): < 4.3; AM/CELL NORM ([2]; Time 72, sheet figure 4 A): -0.1706; MCC50 ([2]; figure 5): 50 µM |
| O=C(c1cccc(Cl)c1Cl)N1CCn2c1nc(-c1ccncc1)cc2=O [TCMDC-143409] | < 4.3 | < 4.3 | -46.4941 | -253.426 | 11.7221 | 0.6 | 24.5196 | -46.4941 | -266.503 | 72.0 | 72 | 72 | 72 | 72 | 0.6173 | -46.5 | -253.4 | 11.7 | -46.4941 | 7.2 | 72 pIC50 (trypomastigotes, raw data of Fig 1D) [1]: < 4.3; 48 pIC50 ([1]; figure 1A): < 4.3; 72 pIC50 ([1]; figure 1A): < 4.3; 72 pIC50 ([1]; figure 1B): < 4.3; AM/CELL NORM ([2]; Time 72, sheet figure 4 A): -474.938; MCC50 ([2]; figure 5): 50 µM |
| CS(=O)(=O)c1cccc(-c2cnc(N)c3c(-c4ccc(CO)cc4)csc23)c1.O=C(O)C(F)(F)F [TCMDC-143410] | 4.5 | 4.4 | 16.9023 | 39.285 | 41.8133 | 1.2 | 25.2958 | 6.562 | -1.837 | 36.0 | 72 | 36 | 72 | 38 | 1.235 | 16.9 | 39.3 | 41.8 | 40.1676 | 5.5 | MCC50 ([2]; RoK curve descriptor): 1.9 µM; AM/CELL NORM ([2]; Time 72, sheet figure 4 A): 13.104; t50%_MCC50 ([2]; at MCC50): 72.0 h; tlag_MCC50 ([2]; at MCC50): 4.0 h; MCC50 ([2]; figure 5, in µM): 25.9259 |
| O=C(NCCc1ccccn1)C(c1cn[nH]c1)N1CCN(c2ccc(Cl)c(Cl)c2)CC1 (centres unmarked) [TCMDC-143411] | < 4.3 | < 4.3 | -24.7459 | 74.9666 | 99.2836 | 0.2 | 6.745 | -24.7459 | 74.9666 | 24.0 | 48 | 24 | 72 | 24 | 0.2058 | -24.8 | 75.0 | 99.3 | -24.7459 | 6.9 | 72 pIC50 (trypomastigotes, raw data of Fig 1D) [1]: < 4.3; 48 pIC50 ([1]; figure 1A): < 4.3; 72 pIC50 ([1]; figure 1A): < 4.3; 72 pIC50 ([1]; figure 1B): < 4.3; MCC50 ([2]; RoK curve descriptor): 16.7 µM; AM/CELL NORM ([2]; Time 72, sheet figure 4 A): 99.2836; t50%_Cmax ([2]; at Cmax): 48.0 h; t50%_MCC50 ([2]; at MCC50): 72.0 h; tlag_MCC50 ([2]; at MCC50): 24.0 h; MCC50 ([2]; figure 5, in µM): 16.6667 |
| COc1cc(-c2nc(N3CCOCC3)sc2-c2ccnc(NC3CCOCC3)n2)ccc1Cl.O=C(O)C(F)(F)F [TCMDC-143414] | < 4.3 | < 4.3 | -30.3967 | 4.32 | 10.4319 | 0.34 | -8.885 | -7.51 | 27.1663 | 14.0 | 72 | 14 | 72 | 72 | 0.3429 | -30.4 | 4.3 | 10.4 | -7.51 | < 4 | 72 pIC50 (trypomastigotes, raw data of Fig 1D) [1]: < 4.3; 48 pIC50 ([1]; figure 1A): < 4.3; 72 pIC50 ([1]; figure 1A): < 4.3; 72 pIC50 ([1]; figure 1B): < 4.3; AM/CELL NORM ([2]; Time 72, sheet figure 4 A): 39.4258; MCC50 ([2]; figure 5): 50 µM |
